Measured values: paper PMC7311426, “An amphipathic peptide with antibiotic activity against multidrug-resistant Gram-negative bacteria” (Nature Communications, 2020)
Converted amounts (≈) assume the structure as drawn.

Legend:
Experiment in all cases: microbe, parasite or virus in culture
[1] = system: P. aeruginosa; conditions: P. aeruginosa UNT 138-1 spontaneous mutant
How it was run: (§1)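 MICs were scored by eye after 18-20 h static incubation at 37 °C, with bacteria at 5 × 10^5 CFU mL^−1 in MHB. Peptides were serially diluted 2-fold over 12 points, top 128 or 64 μg mL^−1. CAMHB (CLSI) and 1% agarose-MHB variants were also run, at least six replicates.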

[2] = system: K. pneumoniae
How it was run: as §1

[3] = system: E. coli
How it was run: as §1

In the case of `NC[C@H]1O[C@H](O[C@H]2[C@H](O)[C@@H](O[C@H]3O[C@H](CO)[C@@H](O)[C@H](N)[C@H]3O)[C@H](N)C[C@@H]2N)[C@H](N)C[C@@H]1O` [TOB], the “MIC, broth microdilution” value ([1]; AA139 selection 4X, plate 1, colony 5, drug-free passage 5) is reported as 0.5 µg/mL (≈ 1.07 µM), the “MIC, broth microdilution” value ([1]; AA139 selection 4X, plate 1, colony 6, drug-free passage 1) is reported as 1 µg/mL (≈ 2.14 µM) and the “MIC, broth microdilution” value ([1]; AA139 selection 4X, plate 1, colony 6, drug-free passage 5) is reported as 0.5 µg/mL (≈ 1.07 µM). For the same molecule, the “MIC, broth microdilution” value ([1]; AA139 selection 4X, plate 1, colony 7, drug-free passage 1) was 0.5, 0.5 µg/mL, the “MIC, broth microdilution” value ([1]; AA139 selection 4X, plate 1, colony 7, drug-free passage 5) was 0.5, 0.5 µg/mL and the “MIC, broth microdilution” value ([1]; AA139 selection 4X, plate 2, colony 1, drug-free passage 1) was 1, 1 µg/mL. The “MIC, broth microdilution” value ([1]; AA139 selection 4X, plate 2, colony 1, drug-free passage 5) was 1, 1 µg/mL, the “MIC, broth microdilution” value ([1]; AA139 selection 4X, plate 2, colony 2, drug-free passage 1) was 0.5, 0.5 µg/mL and the “MIC, broth microdilution” value ([1]; AA139 selection 4X, plate 2, colony 2, drug-free passage 5) was 0.5, 0.5 µg/mL. For the same molecule, the “MIC, broth microdilution” value ([1]; AA139 selection 4X, plate 2, colony 3, drug-free passage 1) was 1 µg/mL (≈ 2.14 µM), the “MIC, broth microdilution” value ([1]; AA139 selection 4X, plate 2, colony 3, drug-free passage 5) was 0.5 µg/mL (≈ 1.07 µM) and the “MIC, broth microdilution” value ([1]; AA139 selection 4X, plate 2, colony 4, drug-free passage 1) was 0.5, 0.5 µg/mL. The “MIC, broth microdilution” value ([1]; AA139 selection 4X, plate 2, colony 4, drug-free passage 5) was 0.5, 0.5 µg/mL, the “MIC, broth microdilution” value ([1]; AA139 selection 4X, plate 2, colony 5, drug-free passage 1) was 1 µg/mL (≈ 2.14 µM) and the “MIC, broth microdilution” value ([1]; AA139 selection 4X, plate 2, colony 5, drug-free passage 5) was 0.5 µg/mL (≈ 1.07 µM). The “MIC, broth microdilution” value ([1]; AA139 selection 4X, plate 2, colony 6, drug-free passage 1) was 0.5, 0.5 µg/mL, the “MIC, broth microdilution” value ([1]; AA139 selection 4X, plate 2, colony 6, drug-free passage 5) was 0.5, 0.5 µg/mL and the “MIC, broth microdilution” value ([1]; AA139 selection 4X, plate 2, colony 7, drug-free passage 1) was 0.5, 0.5 µg/mL. For the same molecule, the “MIC, broth microdilution” value ([1]; AA139 selection 4X, plate 2, colony 7, drug-free passage 5) was 0.5, 0.5 µg/mL, the “MIC, broth microdilution” value ([1]; AA139 selection 8X, plate 1, colony 1, drug-free passage 1) was 0.5 µg/mL (≈ 1.07 µM) and the “MIC, broth microdilution” value ([1]; AA139 selection 8X, plate 1, colony 1, drug-free passage 5) was 2 µg/mL (≈ 4.28 µM). The “MIC, broth microdilution” value ([1]; AA139 selection 8X, plate 1, colony 2, drug-free passage 1) was 1 µg/mL (≈ 2.14 µM), the “MIC, broth microdilution” value ([1]; AA139 selection 8X, plate 1, colony 2, drug-free passage 5) was 0.5 µg/mL (≈ 1.07 µM) and the “MIC, broth microdilution” value ([1]; AA139 selection 8X, plate 1, colony 3, drug-free passage 1) was 0.5, 0.5 µg/mL. For the same molecule, the “MIC, broth microdilution” value ([1]; AA139 selection 8X, plate 1, colony 3, drug-free passage 5) was 0.5, 0.5 µg/mL, the “MIC, broth microdilution” value ([1]; AA139 selection 8X, plate 1, colony 4, drug-free passage 1) was 1 µg/mL (≈ 2.14 µM) and the “MIC, broth microdilution” value ([1]; AA139 selection 8X, plate 1, colony 4, drug-free passage 5) was 0.5 µg/mL (≈ 1.07 µM). The “MIC, broth microdilution” value ([1]; AA139 selection 8X, plate 1, colony 5, drug-free passage 1) was 0.5, 0.5 µg/mL, the “MIC, broth microdilution” value ([1]; AA139 selection 8X, plate 1, colony 5, drug-free passage 5) was 0.5, 0.5 µg/mL and the “MIC, broth microdilution” value ([1]; AA139 selection 8X, plate 2, colony 1, drug-free passage 1) was 0.5, 0.5 µg/mL. For the same molecule, the “MIC, broth microdilution” value ([1]; AA139 selection 8X, plate 2, colony 1, drug-free passage 5) was 0.5, 0.5 µg/mL, the “MIC, broth microdilution” value ([2]; K. pneumoniae 3010 parent strain not exposed to drug) was 0.5 µg/mL (≈ 1.07 µM) and the “MIC, broth microdilution” value ([2]; K. pneumoniae 3010 spontaneous mutant, AA139 selection 4X, plate 1, colony 1, drug-free passage 1) was 1 µg/mL (≈ 2.14 µM). The “MIC, broth microdilution” value ([2]; K. pneumoniae 3010 spontaneous mutant, AA139 selection 4X, plate 1, colony 1, drug-free passage 5) was 0.25 µg/mL (≈ 0.535 µM), the “MIC, broth microdilution” value ([2]; K. pneumoniae 3010 spontaneous mutant, AA139 selection 8X, plate 1, colony 1, drug-free passage 1) was 0.5 µg/mL (≈ 1.07 µM) and the “MIC, broth microdilution” value ([2]; K. pneumoniae 3010 spontaneous mutant, AA139 selection 8X, plate 1, colony 1, drug-free passage 5) was 0.25 µg/mL (≈ 0.535 µM). The “MIC, broth microdilution” value ([2]; K. pneumoniae ST258 parent strain not exposed to drug) was 16 µg/mL (≈ 34.2 µM), the “MIC, broth microdilution” value ([2]; K. pneumoniae ST258 spontaneous mutant, AA139 selection 4X, plate 1, colony 1, drug-free passage 1) was 16, 16 µg/mL and the “MIC, broth microdilution” value ([2]; K. pneumoniae ST258 spontaneous mutant, AA139 selection 4X, plate 1, colony 1, drug-free passage 5) was 16, 16 µg/mL. The “MIC, broth microdilution” value ([3]; E. coli AUD172 parent strain not exposed to drug) was 8 mg/L (≈ 17.1 µM), the “MIC, broth microdilution” value ([3]; E. coli AUD172 spontaneous mutant, AA139 selection 4X, plate 2, colony 2, drug-free passage 1) was 8 mg/L (≈ 17.1 µM) and the “MIC, broth microdilution” value ([3]; E. coli AUD172 spontaneous mutant, AA139 selection 4X, plate 2, colony 2, drug-free passage 5) was 16 mg/L (≈ 34.2 µM).
